Measurements from ChEMBL document CHEMBL4507269, “Data for DCP probe BAY-386” (2021).

Legend:
[1] = target: Mitogen-activated protein kinase kinase kinase 10 (Homo sapiens) (UniProt Q02779); conditions: Compound concentration 1000.0 nM
[2] = target: Interleukin-1 receptor-associated kinase 4 (Homo sapiens) (UniProt Q9NWZ3); conditions: Compound concentration 1000.0 nM
[3] = target: Tyrosine-protein kinase ABL1 (Homo sapiens) (UniProt P00519); conditions: Compound concentration 1000.0 nM
[4] = target: Serine/threonine-protein kinase 4 (Homo sapiens) (UniProt Q13043); conditions: Compound concentration 1000.0 nM
[5] = target: Serine/threonine-protein kinase DCLK3 (Homo sapiens) (UniProt Q9C098); conditions: Compound concentration 1000.0 nM
[6] = test system: Receptor-type tyrosine-protein kinase FLT3 (Homo sapiens), P36888 [UNDEFINED MUTATION]; conditions: Compound concentration 1000.0 nM
[7] = target: Myosin-IIIb (Homo sapiens) (UniProt Q8WXR4); conditions: Compound concentration 1000.0 nM
[8] = target: Receptor-type tyrosine-protein kinase FLT3 (Homo sapiens) (UniProt P36888); conditions: Compound concentration 1000.0 nM
[9] = target: Dual specificity tyrosine-phosphorylation-regulated kinase 1A (Homo sapiens) (UniProt Q13627); conditions: Compound concentration 1000.0 nM
[10] = target: RAC-alpha serine/threonine-protein kinase (Homo sapiens) (UniProt P31749); conditions: Compound concentration 1000.0 nM
[11] = target: SRSF protein kinase 2 (Homo sapiens) (UniProt P78362); conditions: Compound concentration 1000.0 nM
[12] = test system: Receptor-type tyrosine-protein kinase FLT3 (Homo sapiens), P36888 [D835H]; conditions: Compound concentration 1000.0 nM
[13] = target: Tyrosine-protein kinase BTK (Homo sapiens) (UniProt Q06187); conditions: Compound concentration 1000.0 nM
[14] = test system: Receptor-type tyrosine-protein kinase FLT3 (Homo sapiens), P36888 [R834Q]; conditions: Compound concentration 1000.0 nM
[15] = target: 5-hydroxytryptamine receptor 6 (Homo sapiens) (UniProt P50406); conditions: Compound concentration 10.0 uM
[16] = target: Ribosomal protein S6 kinase alpha-4 (Homo sapiens) (UniProt O75676); conditions: Compound concentration 1000.0 nM
[17] = target: Cyclin-dependent kinase-like 5 (Homo sapiens) (UniProt O76039); conditions: Compound concentration 1000.0 nM
[18] = target: Receptor tyrosine-protein kinase erbB-3 (Homo sapiens) (UniProt P21860); conditions: Compound concentration 1000.0 nM
[19] = target: Hepatocyte growth factor receptor (Homo sapiens) (UniProt P08581); conditions: Compound concentration 1000.0 nM
[20] = target: Protein kinase C eta type (Homo sapiens) (UniProt P24723); conditions: Compound concentration 1000.0 nM
[21] = target: Protein kinase C epsilon type (Homo sapiens) (UniProt Q02156); conditions: Compound concentration 1000.0 nM
[22] = target: MAP/microtubule affinity-regulating kinase 4 (Homo sapiens) (UniProt Q96L34); conditions: Compound concentration 1000.0 nM
[23] = target: Cyclin-dependent kinase 2 homolog (Plasmodium falciparum (isolate 3D7)) (UniProt P61075); conditions: Compound concentration 1000.0 nM
[24] = target: Homeodomain-interacting protein kinase 2 (Homo sapiens) (UniProt Q9H2X6); conditions: Compound concentration 1000.0 nM
[25] = target: Dual specificity mitogen-activated protein kinase kinase 6 (Homo sapiens) (UniProt P52564); conditions: Compound concentration 1000.0 nM
[26] = target: Serine/threonine-protein kinase PknB (Mycobacterium tuberculosis) (UniProt P9WI81); conditions: Compound concentration 1000.0 nM
[27] = target: T1, Prostaglandin E2 receptor EP3 subtype (Homo sapiens) (UniProt P43115); assay: EP3 (h) Eurofins-Cerep Cellular and Nuclear Receptor Functional Assays; conditions: Compound concentration 10.0 uM
T1 sequence (whole entry): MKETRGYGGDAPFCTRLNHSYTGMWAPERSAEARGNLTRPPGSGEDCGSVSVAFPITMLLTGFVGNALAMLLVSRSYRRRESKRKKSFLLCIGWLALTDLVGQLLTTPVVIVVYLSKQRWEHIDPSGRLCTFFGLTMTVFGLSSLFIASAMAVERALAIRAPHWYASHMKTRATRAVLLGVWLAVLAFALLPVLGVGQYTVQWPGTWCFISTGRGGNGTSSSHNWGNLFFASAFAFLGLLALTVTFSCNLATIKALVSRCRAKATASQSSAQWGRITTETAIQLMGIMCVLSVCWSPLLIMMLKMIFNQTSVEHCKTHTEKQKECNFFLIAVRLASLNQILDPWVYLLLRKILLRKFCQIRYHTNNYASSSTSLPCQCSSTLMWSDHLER

[28] = target: Myosin-IIIa (Homo sapiens) (UniProt Q8NEV4); conditions: Compound concentration 1000.0 nM
[29] = target: Serine/threonine-protein kinase B-raf (Homo sapiens) (UniProt P15056); conditions: Compound concentration 1000.0 nM
[30] = target: MAP kinase-activated protein kinase 5 (Homo sapiens) (UniProt Q8IW41); conditions: Compound concentration 1000.0 nM
[31] = target: Mitogen-activated protein kinase kinase kinase 15 (Homo sapiens) (UniProt Q6ZN16); conditions: Compound concentration 1000.0 nM
[32] = target: Inhibitor of nuclear factor kappa-B kinase subunit beta (Homo sapiens) (UniProt O14920); conditions: Compound concentration 1000.0 nM
[33] = target: Serine/threonine-protein kinase Nek3 (Homo sapiens) (UniProt P51956); conditions: Compound concentration 1000.0 nM
[34] = target: Substance-P receptor (Homo sapiens) (UniProt P25103); assay: NK1 (h) Eurofins-Cerep Cellular and Nuclear Receptor Functional Assays; conditions: Compound concentration 10.0 uM
[35] = target: Serine/threonine-protein kinase TAO1 (Homo sapiens) (UniProt Q7L7X3); conditions: Compound concentration 1000.0 nM
[36] = target: Serine/threonine-protein kinase haspin (Homo sapiens) (UniProt Q8TF76); conditions: Compound concentration 1000.0 nM
[37] = target: Serine/threonine-protein kinase mTOR (Homo sapiens) (UniProt P42345); conditions: Compound concentration 1000.0 nM
[38] = target: Tyrosine-protein kinase Yes (Homo sapiens) (UniProt P07947); conditions: Compound concentration 1000.0 nM
[39] = target: Tyrosine-protein kinase Blk (Homo sapiens) (UniProt P51451); conditions: Compound concentration 1000.0 nM

Sequence of Substance-P receptor (Homo sapiens) (P25103 whole entry): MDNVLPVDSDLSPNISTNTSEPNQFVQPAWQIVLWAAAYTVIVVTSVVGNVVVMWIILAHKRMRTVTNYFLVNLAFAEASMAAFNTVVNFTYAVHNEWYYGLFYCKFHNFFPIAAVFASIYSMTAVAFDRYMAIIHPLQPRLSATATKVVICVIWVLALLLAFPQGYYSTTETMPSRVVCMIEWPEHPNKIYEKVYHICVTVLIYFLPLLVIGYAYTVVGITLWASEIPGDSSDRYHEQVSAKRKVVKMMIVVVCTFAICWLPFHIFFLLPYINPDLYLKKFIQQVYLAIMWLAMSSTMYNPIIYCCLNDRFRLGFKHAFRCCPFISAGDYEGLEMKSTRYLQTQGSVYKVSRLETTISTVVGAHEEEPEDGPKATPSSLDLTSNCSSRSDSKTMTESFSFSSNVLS
Sequence of Mitogen-activated protein kinase kinase kinase 15 (Homo sapiens) (Q6ZN16 whole entry): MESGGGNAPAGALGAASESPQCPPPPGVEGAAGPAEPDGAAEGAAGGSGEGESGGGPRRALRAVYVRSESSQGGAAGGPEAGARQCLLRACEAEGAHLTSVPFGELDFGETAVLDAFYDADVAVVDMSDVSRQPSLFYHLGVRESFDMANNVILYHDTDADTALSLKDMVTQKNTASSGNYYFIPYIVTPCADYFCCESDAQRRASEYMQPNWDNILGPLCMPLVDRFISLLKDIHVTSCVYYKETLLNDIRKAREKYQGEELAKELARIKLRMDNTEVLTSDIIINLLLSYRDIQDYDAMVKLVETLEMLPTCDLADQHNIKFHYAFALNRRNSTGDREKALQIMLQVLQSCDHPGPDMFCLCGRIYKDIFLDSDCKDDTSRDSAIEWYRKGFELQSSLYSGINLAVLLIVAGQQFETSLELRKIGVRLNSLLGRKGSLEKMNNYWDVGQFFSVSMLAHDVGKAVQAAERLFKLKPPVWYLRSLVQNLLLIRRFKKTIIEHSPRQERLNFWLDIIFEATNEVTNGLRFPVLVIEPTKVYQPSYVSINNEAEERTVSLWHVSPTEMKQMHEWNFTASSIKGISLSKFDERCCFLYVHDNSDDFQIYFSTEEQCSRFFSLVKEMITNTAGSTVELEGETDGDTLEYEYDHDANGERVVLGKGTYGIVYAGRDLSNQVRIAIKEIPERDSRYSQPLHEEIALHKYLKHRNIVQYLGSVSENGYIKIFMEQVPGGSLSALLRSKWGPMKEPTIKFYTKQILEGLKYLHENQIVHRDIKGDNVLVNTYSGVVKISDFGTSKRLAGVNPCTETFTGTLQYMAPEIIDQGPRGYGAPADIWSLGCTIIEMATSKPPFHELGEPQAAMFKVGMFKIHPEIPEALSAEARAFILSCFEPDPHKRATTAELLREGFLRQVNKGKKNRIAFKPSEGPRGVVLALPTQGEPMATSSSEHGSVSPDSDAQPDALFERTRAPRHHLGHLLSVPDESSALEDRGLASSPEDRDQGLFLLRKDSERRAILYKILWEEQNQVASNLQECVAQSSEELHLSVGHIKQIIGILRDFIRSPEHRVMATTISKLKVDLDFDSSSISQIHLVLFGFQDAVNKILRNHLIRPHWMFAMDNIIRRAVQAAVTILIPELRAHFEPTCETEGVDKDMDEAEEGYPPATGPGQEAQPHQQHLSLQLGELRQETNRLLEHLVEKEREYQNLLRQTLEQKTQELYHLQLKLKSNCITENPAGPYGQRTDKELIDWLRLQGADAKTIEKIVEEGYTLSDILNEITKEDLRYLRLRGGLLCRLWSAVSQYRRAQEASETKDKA
Sequence of Myosin-IIIa (Homo sapiens) (Q8NEV4 whole entry): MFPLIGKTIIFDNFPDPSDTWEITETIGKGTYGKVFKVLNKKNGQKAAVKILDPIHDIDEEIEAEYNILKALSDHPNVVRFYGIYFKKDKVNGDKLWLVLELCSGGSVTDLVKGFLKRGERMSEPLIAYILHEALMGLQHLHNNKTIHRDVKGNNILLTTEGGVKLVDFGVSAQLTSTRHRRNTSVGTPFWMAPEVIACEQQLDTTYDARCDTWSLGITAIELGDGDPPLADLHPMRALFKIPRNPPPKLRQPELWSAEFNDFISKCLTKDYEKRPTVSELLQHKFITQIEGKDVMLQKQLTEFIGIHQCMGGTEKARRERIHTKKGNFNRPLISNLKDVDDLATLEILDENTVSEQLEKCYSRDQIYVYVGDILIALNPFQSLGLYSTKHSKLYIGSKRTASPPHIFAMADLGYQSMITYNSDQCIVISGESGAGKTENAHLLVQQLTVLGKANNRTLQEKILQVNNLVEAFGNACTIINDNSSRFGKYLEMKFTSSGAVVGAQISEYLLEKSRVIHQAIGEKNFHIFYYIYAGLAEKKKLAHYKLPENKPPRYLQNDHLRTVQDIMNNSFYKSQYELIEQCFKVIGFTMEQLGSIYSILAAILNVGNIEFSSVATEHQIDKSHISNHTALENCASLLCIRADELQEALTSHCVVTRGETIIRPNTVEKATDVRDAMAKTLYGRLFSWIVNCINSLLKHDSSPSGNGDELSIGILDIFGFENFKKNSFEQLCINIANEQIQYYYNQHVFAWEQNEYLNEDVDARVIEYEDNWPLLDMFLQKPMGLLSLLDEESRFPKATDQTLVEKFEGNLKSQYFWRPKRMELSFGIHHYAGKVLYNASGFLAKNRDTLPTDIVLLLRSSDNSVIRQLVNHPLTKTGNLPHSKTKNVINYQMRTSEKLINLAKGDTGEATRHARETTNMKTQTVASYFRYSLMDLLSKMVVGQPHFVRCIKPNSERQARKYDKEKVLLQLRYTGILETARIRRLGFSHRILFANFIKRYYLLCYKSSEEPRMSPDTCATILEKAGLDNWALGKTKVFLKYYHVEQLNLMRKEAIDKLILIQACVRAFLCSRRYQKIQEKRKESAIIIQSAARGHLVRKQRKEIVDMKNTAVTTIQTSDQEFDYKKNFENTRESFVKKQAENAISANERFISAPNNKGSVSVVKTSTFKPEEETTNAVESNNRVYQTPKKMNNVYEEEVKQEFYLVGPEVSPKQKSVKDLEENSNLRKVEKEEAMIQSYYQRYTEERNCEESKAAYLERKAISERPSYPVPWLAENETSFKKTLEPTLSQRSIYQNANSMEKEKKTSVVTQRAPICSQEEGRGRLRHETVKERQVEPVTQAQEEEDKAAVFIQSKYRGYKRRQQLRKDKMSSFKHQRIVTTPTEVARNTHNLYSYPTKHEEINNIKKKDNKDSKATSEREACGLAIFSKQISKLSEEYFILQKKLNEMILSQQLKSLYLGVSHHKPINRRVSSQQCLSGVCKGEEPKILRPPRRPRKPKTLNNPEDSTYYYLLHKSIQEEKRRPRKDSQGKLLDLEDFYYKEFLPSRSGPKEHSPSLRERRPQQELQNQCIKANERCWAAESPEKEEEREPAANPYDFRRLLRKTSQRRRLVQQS
Sequence of Dual specificity mitogen-activated protein kinase kinase 6 (Homo sapiens) (P52564 whole entry): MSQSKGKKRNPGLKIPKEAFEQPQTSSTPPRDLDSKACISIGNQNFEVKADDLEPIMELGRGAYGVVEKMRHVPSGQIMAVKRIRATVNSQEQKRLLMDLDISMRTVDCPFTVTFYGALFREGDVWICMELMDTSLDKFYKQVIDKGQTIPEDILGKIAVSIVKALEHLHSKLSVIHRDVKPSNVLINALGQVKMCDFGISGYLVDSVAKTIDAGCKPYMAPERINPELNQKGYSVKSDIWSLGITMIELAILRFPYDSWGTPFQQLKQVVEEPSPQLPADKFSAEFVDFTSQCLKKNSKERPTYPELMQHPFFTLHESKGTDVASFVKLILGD
Sequence of Serine/threonine-protein kinase PknB (Mycobacterium tuberculosis) (P9WI81 whole entry): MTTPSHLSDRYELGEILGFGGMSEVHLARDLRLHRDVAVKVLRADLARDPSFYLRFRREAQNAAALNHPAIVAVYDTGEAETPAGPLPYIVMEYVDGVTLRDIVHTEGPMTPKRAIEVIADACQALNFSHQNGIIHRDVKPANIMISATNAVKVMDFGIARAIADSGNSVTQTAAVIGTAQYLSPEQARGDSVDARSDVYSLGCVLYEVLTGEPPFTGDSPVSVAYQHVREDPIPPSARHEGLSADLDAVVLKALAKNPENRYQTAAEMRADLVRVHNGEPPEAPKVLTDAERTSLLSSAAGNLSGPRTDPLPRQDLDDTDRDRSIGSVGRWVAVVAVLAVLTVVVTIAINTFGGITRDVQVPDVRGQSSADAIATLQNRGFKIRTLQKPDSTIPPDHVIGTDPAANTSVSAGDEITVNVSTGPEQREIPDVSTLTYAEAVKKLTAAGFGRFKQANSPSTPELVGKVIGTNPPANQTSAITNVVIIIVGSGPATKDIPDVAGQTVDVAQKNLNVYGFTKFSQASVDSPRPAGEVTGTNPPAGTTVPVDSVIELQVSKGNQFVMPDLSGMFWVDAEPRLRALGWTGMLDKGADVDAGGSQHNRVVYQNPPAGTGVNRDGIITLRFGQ
Sequence of Protein kinase C epsilon type (Homo sapiens) (Q02156 whole entry): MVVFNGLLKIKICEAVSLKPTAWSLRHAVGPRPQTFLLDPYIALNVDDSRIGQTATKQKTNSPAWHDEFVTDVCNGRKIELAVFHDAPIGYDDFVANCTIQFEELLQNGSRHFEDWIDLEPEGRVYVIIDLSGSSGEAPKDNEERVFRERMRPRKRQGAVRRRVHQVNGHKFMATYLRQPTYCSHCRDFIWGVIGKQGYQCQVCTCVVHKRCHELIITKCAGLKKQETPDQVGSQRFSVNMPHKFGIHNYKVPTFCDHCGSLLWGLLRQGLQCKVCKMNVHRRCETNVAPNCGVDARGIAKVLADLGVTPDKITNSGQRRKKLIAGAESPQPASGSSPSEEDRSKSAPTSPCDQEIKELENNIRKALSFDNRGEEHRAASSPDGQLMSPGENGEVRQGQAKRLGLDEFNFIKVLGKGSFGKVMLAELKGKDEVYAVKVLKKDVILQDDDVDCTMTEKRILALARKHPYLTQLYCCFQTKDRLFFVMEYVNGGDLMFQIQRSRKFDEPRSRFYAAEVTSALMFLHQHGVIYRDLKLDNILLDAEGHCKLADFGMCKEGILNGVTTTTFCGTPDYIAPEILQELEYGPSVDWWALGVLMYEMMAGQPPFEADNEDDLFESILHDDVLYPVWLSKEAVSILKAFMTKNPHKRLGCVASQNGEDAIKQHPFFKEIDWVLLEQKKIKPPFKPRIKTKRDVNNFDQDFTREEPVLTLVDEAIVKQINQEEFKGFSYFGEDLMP

For O=C(N1CCS(=O)(=O)CC1)N1C[C@H](c2ccc(OC(F)(F)F)cc2)C[C@H](c2nc(C3CC3)no2)C1 [BAY-386], the residual activity [1] was 99%, the residual activity [2] was 80% and the residual activity [3] was 92%. It also gave a residual activity [4] of 100%, a residual activity [5] of 100% and a residual activity [6] of 100%. It also gave a residual activity [7] of 89%, a residual activity [8] of 81% and a residual activity [9] of 100%. The residual activity [10] was 96%, the residual activity [11] was 100% and the residual activity [12] was 92%. It also gave a residual activity [13] of 100%, a residual activity [14] of 100% and an inhibition [15] of 2.78%. The residual activity [16] was 82%, the residual activity [17] was 100% and the residual activity [18] was 100%. It also gave a residual activity [19] of 100%, a residual activity [20] of 100% and a residual activity [21] of 97%. For the same compound, the residual activity [22] was 100%, the residual activity [23] was 100% and the residual activity [24] was 100%. It also gave a residual activity [25] of 100%, a residual activity [26] of 100% and a % Inhibition of Control Agonist Response (Mean n=2) [27] of -8%. For the same compound, the % of Control Agonist Response (Mean n=2) [27] was 4.5%, the residual activity [28] was 100% and the residual activity [29] was 100%. It also gave a residual activity [30] of 94%, a residual activity [31] of 100% and a residual activity [32] of 77%. It also gave a residual activity [33] of 100%, a % Inhibition of Control Agonist Response (Mean n=2) [34] of 23.3% and a % of Control Agonist Response (Mean n=2) [34] of 1.8%. For the same compound, the residual activity [35] was 100%, the residual activity [36] was 95% and the residual activity [37] was 100%. It also gave a residual activity [38] of 96% and a residual activity [39] of 100%.
For Cc1noc([C@H]2C[C@@H](c3ccc(C(F)(F)F)cc3)CN(C(=O)N3CCS(=O)(=O)C3)C2)n1 [BAY-448], the residual activity [1] was 96%, the residual activity [2] was 83% and the residual activity [3] was 100%. It also gave a residual activity [4] of 100%, a residual activity [5] of 100% and a residual activity [6] of 100%. The residual activity [7] was 100%, the residual activity [8] was 100% and the residual activity [9] was 100%. For the same compound, the residual activity [10] was 90%, the residual activity [11] was 100% and the residual activity [12] was 100%. For the same compound, the residual activity [13] was 96%, the residual activity [14] was 91% and the inhibition [15] was 27.7%. For the same compound, the residual activity [16] was 100%, the residual activity [17] was 100% and the residual activity [18] was 100%. It also gave a residual activity [19] of 100%, a residual activity [20] of 95% and a residual activity [21] of 100%. For the same compound, the residual activity [22] was 84%, the residual activity [23] was 80% and the residual activity [24] was 100%. The residual activity [25] was 100%, the residual activity [26] was 82% and the % Inhibition of Control Agonist Response (Mean n=2) [27] was 0.6%. For the same compound, the % of Control Agonist Response (Mean n=2) [27] was -0.6%, the residual activity [28] was 100% and the residual activity [29] was 97%. It also gave a residual activity [30] of 100%, a residual activity [31] of 100% and a residual activity [32] of 80%. For the same compound, the residual activity [33] was 73%, the % Inhibition of Control Agonist Response (Mean n=2) [34] was 2.1% and the % of Control Agonist Response (Mean n=2) [34] was 0.3%. For the same compound, the residual activity [35] was 100%, the residual activity [36] was 100% and the residual activity [37] was 92%. For the same compound, the residual activity [38] was 100% and the residual activity [39] was 100%.
